This is an account of results in patent publication EP0499662A1, “Compositions with enhanced penetration” (WARNER-LAMBERT COMPANY, priority 1991, dated 1992).

This series can be described thus: in vitro permeation (diffusion) study across hairless mouse skin.

Consider `C[C@]12CCC(=O)C=C1CC[C@@H]1[C@@H]2[C@@H](O)C[C@@]2(C)[C@H]1CC[C@]2(O)C(=O)CO` [Hydrocortisone, hydrocortisone], for which the “Avg. Flux” value (formulation EtOH, saturated with the drug except for verapamil, average of the flux values at each sampling time within 24 hours) is listed as 0.64 µg/cm^2/h; the “Avg. Flux” value (formulation EtOH:Mig 20:80, saturated with the drug except for verapamil, average within 24 hours) was 10.24 µg/cm^2/h; the “Avg. Flux” value (formulation Mig (Miglyol 840), saturated with the drug except for verapamil, average within 24 hours) is 1.49 µg/cm^2/h.
